According to patent US20070049593A1 (priority 2004, published 2007):
pIC50: −log10 of the molar value. Where a name gives a salt, the structure may show the parent alone.

Each compound was assayed against T1, HCV polymerase (Hepatitis C virus genotype 1b, UniProt P26663) (assay: biochemical).
T1 construct: a region encoding NS5B (J Virol 1991 March, 65(3), 1105-13, 544 amino acids after deletion of 47 amino acids on the C-terminal); 6xHis (C); made in house; host or cells: Escherichia coli
Set-up: species or system HCV BK strain
Summary of the method: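 His-tagged NS5B (BK strain, 47-aa C-terminal deletion, E. coli-expressed) at 0.5 μg/ml copied 5 μg/ml run-off RNA bearing the HCV 3′ UTR with 2 μM UTP plus [3H]UTP, 50 μM ATP/GTP, in pH 7.5 Tris with 5 mM MgCl2, 25 °C, 90 min. TCA-precipitated RNA was counted and IC50 calculated.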

T1 sequence (P26663 2420-2963): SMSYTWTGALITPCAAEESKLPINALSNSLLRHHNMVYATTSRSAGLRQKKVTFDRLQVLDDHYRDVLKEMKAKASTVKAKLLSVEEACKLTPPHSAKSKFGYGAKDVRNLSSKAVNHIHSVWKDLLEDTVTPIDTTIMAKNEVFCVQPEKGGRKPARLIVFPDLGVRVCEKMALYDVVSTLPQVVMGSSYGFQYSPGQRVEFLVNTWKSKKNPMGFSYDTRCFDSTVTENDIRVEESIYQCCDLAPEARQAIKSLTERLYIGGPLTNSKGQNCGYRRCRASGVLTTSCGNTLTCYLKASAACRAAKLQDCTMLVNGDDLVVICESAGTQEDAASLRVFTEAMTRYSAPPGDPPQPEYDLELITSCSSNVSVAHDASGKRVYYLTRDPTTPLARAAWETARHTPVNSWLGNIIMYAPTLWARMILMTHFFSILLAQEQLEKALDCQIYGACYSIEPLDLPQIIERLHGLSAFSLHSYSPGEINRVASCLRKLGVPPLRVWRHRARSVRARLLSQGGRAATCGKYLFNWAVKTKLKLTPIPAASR

| SMILES | pIC50 |
| --- | --- |
| COc1ccc2c(c1)OCCn1c-2c(C2CCCCC2)c2ccc(C(=O)NC(C)(C)c3nc4cc(F)ccc4[nH]3)cc21 [Example 2-380, N-[1-(5-fluoro-1H-benzimidazol-2-yl)-1-methylethyl]-12-cyclohexyl-3-methoxy-6,7-dihydro-5-oxa-7a-azadibenzo[a,e]azulene-9-carboxamide] | > 7.00 |
| CN(C)CCCN1CCn2c(c(C3CCCCC3)c3ccc(C(=O)O)cc32)-c2ccc(Cl)cc21 [Example 1-247, 3-chloro-13-cyclohexyl-5-(3-dimethylaminopropyl)-6,7-dihydro-5H-benzo[5,6][1,4]diazepino[7,1-a]indole-10-carboxylic acid dihydrochloride] | > 7.00 |
| CC1CCCN(CCN2CCn3c(c(C4CCCCC4)c4ccc(C(=O)O)cc43)-c3ccccc32)C1 (centres unmarked) [Example 1-143, 13-cyclohexyl-5-[2-(3-methylpiperidin-1-yl)ethyl]-6,7-dihydro-5H-benzo[5,6][1,4]diazepino[7,1-a]indole-10-carboxylic acid dihydrochloride] | > 7.00 |
| CCN1CCN(CCN2CCn3c(c(C4CCCCC4)c4ccc(C(=O)O)cc43)-c3ccc(F)cc32)CC1 [Example 1-160, 13-cyclohexyl-5-[2-(4-ethylpiperazin-1-yl)ethyl]-3-fluoro-6,7-dihydro-5H-benzo[5,6][1,4]diazepino[7,1-a]indole-10-carboxylic acid trihydrochloride] | > 7.00 |
| O=C(NCC1(O)CCCCC1)c1ccc2c(C3CCCCC3)c3n(c2c1)CCOc1ccccc1-3 [Example 2-206, N-(1-hydroxycyclohexylmethyl)-12-cyclohexyl-6,7-dihydro-5-oxa-7a-azadibenzo[a,e]azulene-9-carboxamide] | 6.00 to 7.00 |
| O=C(O)c1ccc2c(C3CCCCC3)c3n(c2c1)CCOc1c(-c2cccnc2)cccc1-3 [Example 2-298, 12-cyclohexyl-4-(pyridin-3-yl)-6,7-dihydro-5-oxa-7a-azadibenzo[a,e]azulene-9-carboxylic acid hydrochloride] | > 7.00 |
| COC(=O)Nc1ccc(C[C@H](NC(=O)c2ccc3c(C4CCCCC4)c4n(c3c2)CCOc2cc(OC)ccc2-4)c2nc(C)no2)cc1 [Example 2-407, methyl {4-[(S)-2-[(12-cyclohexyl-3-methoxy-6,7-dihydro-5-oxa-7a-azadibenzo[a,e]azulene-9-carbonyl)amino]-2-(3-methyl-1,2,4-oxadiazol-5-yl)ethyl]phenyl}carbamate] | > 7.00 |
| O=C(O)c1ccc2c(C3CCCCC3)c3n(c2c1)CCN(CC[C@H]1CCCN(C2CCCC2)C1)c1cc(Cl)ccc1-3 [Example 1-408, 3-chloro-13-cyclohexyl-5-[2-((R)-1-cyclopentylpiperidin-3-yl)ethyl]-6,7-dihydro-5H-benzo[5,6][1,4]diazepino[7,1-a]indole-10-carboxylic acid dihydrochloride] | > 7.00 |
| O=C(O)c1ccc2c(C3CCCCC3)c3n(c2c1)CCOc1c(-c2ccccc2NCCN2CCCCC2)cccc1-3 [Example 2-554, 12-cyclohexyl-4-{2-[2-(piperidin-1-yl)ethylamino]phenyl}-6,7-dihydro-5-oxa-7a-azadibenzo[a,e]azulene-9-carboxylic acid dihydrochloride] | > 7.00 |
| O=C(O)c1ccc2c(C3CCCCC3)c3n(c2n1)CCN(CC(=O)N1CCOCC1)c1ccccc1-3 [Example 8-4, 12-cyclohexyl-5-[2-oxo-2-(morpholin-4-yl)ethyl]-6,7-dihydro-5H-5,7a,8-triazadibenzo[a,e]azulene-9-carboxylic acid dihydrochloride] | > 7.00 |
| CNC(=O)c1cccc(COc2ccc3c(c2)N(CCN(C)C)CCn2c-3c(C3CCCCC3)c3ccc(C(=O)O)cc32)c1 [Example 1-590, 13-cyclohexyl-5-(2-dimethylaminoethyl)-3-(3-methylcarbamoylbenzyloxy)-6,7-dihydro-5H-benzo[5,6][1,4]diazepino[7,1-a]indole-10-carboxylic acid dihydrochloride] | > 7.00 |
| CC(=O)N1CCC(CCN2CCn3c(c(C4CCCCC4)c4ccc(C(=O)O)cc43)-c3ccccc32)CC1 [Example 1-92, 5-[2-(1-acetylpiperidin-4-yl)ethyl]-13-cyclohexyl-6,7-dihydro-5H-benzo[5,6][1,4]diazepino[7,1-a]indole-10-carboxylic acid monohydrochloride] | > 7.00 |
| COC(=O)c1cc2nc(C(C)(C)NC(=O)c3ccc4c(C5CCCCC5)c5n(c4c3)CCOc3cc(OC)ccc3-5)[nH]c2cc1OC [Example 2-331, methyl 2-{1-[(12-cyclohexyl-3-methoxy-6,7-dihydro-5-oxa-7a-azadibenzo[a,e]azulene-9-carbonyl)amino]-1-methylethyl}-6-methoxy-1H-benzimidazole-5-carboxylate] | > 7.00 |
| CCc1ccc2c(c1)N(CCN1CCC[C@@H](CCOC)C1)CCn1c-2c(C2CCCCC2)c2ccc(C(=O)O)cc21 [Example 1-430, 13-cyclohexyl-3-ethyl-5-{2-[(S)-3-(2-methoxyethyl)piperidin-1-yl]ethyl}-6,7-dihydro-5H-benzo[5,6][1,4]diazepino[7,1-a]indole-10-carboxylic acid dihydrochloride] | > 7.00 |
| COc1ccc2c(c1)OCCn1c-2c(C2CCCCC2)c2ccc(C(=O)NC3(C(=O)Nc4ccc(/C=C/C(=O)O)cc4)CCOCC3)cc21 [Example 2-401, (E)-3-[4-({4-[(12-cyclohexyl-3-methoxy-6,7-dihydro-5-oxa-7a-azadibenzo[a,e]azulene-9-carbonyl)amino]tetrahydropyran-4-carbonyl}amino)phenyl]acrylic acid] | > 7.00 |
| CC(=O)N1CCC(N(C)CCN2CCn3c(c(C4CCCCC4)c4ccc(C(=O)O)cc43)-c3ccccc32)C1 (centres unmarked) [Example 1-251, 5-{2-[N-(1-acetylpyrrolidin-3-yl)-N-methylamino]ethyl}-13-cyclohexyl-6,7-dihydro-5H-benzo[5,6][1,4]diazepino[7,1-a]indole-10-carboxylic acid monohydrochloride] | > 7.00 |
| COCCC1CCN(CCN2CCn3c(c(C4CCCCC4)c4ccc(C(=O)O)cc43)-c3ccc(C)cc32)CC1 [Example 1-502, 13-cyclohexyl-5-{2-[4-(2-methoxyethyl)piperidin-1-yl]ethyl}-3-methyl-6,7-dihydro-5H-benzo[5,6][1,4]diazepino[7,1-a]indole-10-carboxylic acid dihydrochloride] | > 7.00 |
| CN1CCCN(C(=O)CN2CCn3c(c(C4CCCCC4)c4ccc(C(=O)O)cc43)-c3ccccc32)CC1 [Example 1-54, 13-cyclohexyl-5-[2-(4-methyl-1,4-diazepan-1-yl)-2-oxoethyl]-6,7-dihydro-5H-benzo[5,6][1,4]diazepino[7,1-a]indole-10-carboxylic acid dihydrochloride] | > 7.00 |
| CCN1CCCC(CN2CCn3c(c(C4CCCCC4)c4ccc(C(=O)O)cc43)-c3ccccc32)C1 (centres unmarked) [Example 1-153, 13-cyclohexyl-5-(1-ethylpiperidin-3-ylmethyl)-6,7-dihydro-5H-benzo[5,6][1,4]diazepino[7,1-a]indole-10-carboxylic acid dihydrochloride] | > 7.00 |
| CCCc1ccc2c(c1)N(CCN1CCCC(COC)C1)CCn1c-2c(C2CCCCC2)c2ccc(C(=O)O)cc21 (centres unmarked) [Example 1-346, 13-cyclohexyl-5-[2-(3-methoxymethylpiperidin-1-yl)ethyl]-3-propyl-6,7-dihydro-5H-benzo[5,6][1,4]diazepino[7,1-a]indole-10-carboxylic acid dihydrochloride] | > 7.00 |
| O=C(O)c1ccc2c(C3CCCCC3)c3n(c2c1)CCN(CC(=O)N1CCCCC1)c1ccccc1-3 [Example 1-29, 13-cyclohexyl-5-[2-oxo-2-(piperidin-1-yl)ethyl]-6,7-dihydro-5H-benzo[5,6][1,4]diazepino[7,1-a]indole-10-carboxylic acid] | > 7.00 |
| CCOCCCN(CC)CCCN1CCn2c(c(C3CCCCC3)c3ccc(C(=O)O)cc32)-c2ccc(Cl)cc21 [Example 1-433, 3-chloro-13-cyclohexyl-5-{3-[N-(3-ethoxypropyl)-N-ethylamino]propyl}-6,7-dihydro-5H-benzo[5,6][1,4]diazepino[7,1-a]indole-10-carboxylic acid dihydrochloride] | > 7.00 |
| O=C(O)c1ccc2c(C3CCCCC3)c3n(c2c1)CCOc1c-3cccc1N(CCN1CCCOCC1)CCN1CCCOCC1 [Example 2-360, 4-{bis[2-(1,4-oxazepan-4-yl)ethyl]amino}-12-cyclohexyl-6,7-dihydro-5-oxa-7a-azadibenzo[a,e]azulene-9-carboxylic acid trihydrochloride] | > 7.00 |
| O=C(O)c1ccc(N[C@@H]2CCCC[C@H]2NC(=O)c2ccc3c(C4CCCCC4)c4n(c3c2)CCOc2ccccc2-4)cc1 [Example 2-153, 4-{(1R,2R)-2-[(12-cyclohexyl-6,7-dihydro-5-oxa-7a-azadibenzo[a,e]azulene-9-carbonyl)amino]cyclohexylamino}benzoic acid] | > 7.00 |
| CN(C)CCN1CCn2c(c(C3CCCCC3)c3ccc(C(=O)O)cc32)-c2ccc(OCc3cccc(C(=O)N(C)C)c3)cc21 [Example 1-587, 13-cyclohexyl-5-(2-dimethylaminoethyl)-3-(3-dimethylcarbamoylbenzyloxy)-6,7-dihydro-5H-benzo[5,6][1,4]diazepino[7,1-a]indole-10-carboxylic acid dihydrochloride] | > 7.00 |
| NC(=O)c1ccc2c(c1)N(CCN1CCCCC1)CCn1c-2c(C2CCCCC2)c2ccc(C(=O)O)cc21 [Example 1-491, 3-carbamoyl-13-cyclohexyl-5-[2-(piperidin-1-yl)ethyl]-6,7-dihydro-5H-benzo[5,6][1,4]diazepino[7,1-a]indole-10-carboxylic acid monohydrochloride] | > 7.00 |
